{"source": "patent US11091444B2", "about": "“Hydantoins that modulate BACE-mediated app processing” (BUCK INSTITUTE FOR RESEARCH ON AGING, priority 2013, dated 2021)", "key": {"TRX-eAPP575-624": {"molecular_target": "TRX-eAPP575-624 (Homo sapiens (Human), UniProt P05067)", "sequence (P05067 650-699)": "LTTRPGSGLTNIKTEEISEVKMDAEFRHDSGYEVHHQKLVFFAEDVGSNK", "assay": "SPR (Biacore) binding to APP ectodomain fragment", "experimental": "The binding affinity of the compounds for the ectodomain of APP was determined using SPR. […] The eAPP was crosslinked linked to the CM5 Biacore chips (GE Healthcare).\nFC1 served as a reference cell following a mock immobilization with buffer alone. For all cells, the flow rate was 10 al per min. The chip was blocked with 1M ethanolamine (pH 8.5). […] Binding traces were recorded for each dilution with a binding phase of 60 seconds and a dissociation phase of 240 seconds. Each cycle was performed at 20° C. with a constant flow rate of 20 l/min. An additional 240 seconds of buffer flow at 60 al per min across the cells was applied as a regeneration phase to facilitate complete dissociation of the compound from the protein. The sensograms were obtained by subtraction of the reference and buffer signals using the Biacore T100 Evaluation software. The binding curves were modeled with the PRISM (Graphpad Inc)."}, "sAPP alpha": {"tested_on": "sAPP alpha", "assay": "Secondary screen: sAPP alpha", "format": "cell-based", "settings": "for sAPP alpha: increase (↑); for sAPP (α/β): increase (↑) of ratio"}, "sAPP beta": {"tested_on": "sAPP beta", "assay": "Secondary screen: sAPP beta", "format": "cell-based", "settings": "decrease (↓)"}, "Aβ1-42": {"tested_on": "Aβ1-42", "assay": "Aβ1-42 ELISA in SH-SY5Y neuroblastoma cells", "format": "cell-based, human", "settings": "for IC50: Homo sapiens, SH-SY5Y, secondary screen", "experimental": "SH-SY5Y neuroblastoma cells were seeded at 50,000 cells/well in a 96 wells plate for 24 h. Then their medium was changed for fresh medium supplemented with desired concentration of the hydantoin compound (e.g. compound 3). After 24 h, 20 al of the medium was added to 2 al of the complete protease inhibitor with 1 μM EDTA and kept at 4° C. until analysis using the ELISA assay below.\nELISA kits from Invitrogen were also used to quantify Aβ1-42 (KHB3544) in duplicate. For the Aβ 1-42 ultrasensitive ELISA, samples were diluted 1:2 (50 al CSF plus 50 μl kit-provided standard diluent buffer). Assays were performed according to manufacturer's instructions. In short, standards and samples were added to a plate pre-coated with a monoclonal capture antibody specific for the amino terminus of Hu Aβ. The samples were co-incubated with a rabbit detection antibody (Ab) specific for the carboxy terminus of the Aβ species being assayed for 3 hr at room temperature overnight at 4° (Aβ 1-42) with gentle rocking. After washing, bound rabbit Ab was detected using a horseradish peroxidase-labeled anti-rabbit secondary Ab. After washing again, bound HRP-anti rabbit Ab was detected colorimetrically (Spectramax 190, Molecular Devices) by the addition of a substrate solution. 1 mM 4-(2-Aminoethyl) benzenesulfonyl fluoride hydrochloride (AEBSF) protease inhibitor (101500, Calbiochem) was added to standards and samples."}, "Aβ42": {"tested_on": "Aβ42", "assay": "Aβ lowering in NTg mice", "format": "in vivo", "settings": "1 mpk", "experimental": "Compound 2 and other hydantoins were produced (see, e.g., compounds 1-5 pharmacokinetic evaluation of these hydantoins was determined in brain uptake assays using NTg mice (see, e.g., Table 1). It was also determined that Compound 1 lowered Aβ42 in the same animals at 5 mpk, while compound 3 lowered Aβ at 1 mpk."}, "NRG1-BACE1": {"molecular_target": "NRG1-BACE1 (Homo sapiens (Human), UniProt P56817)", "sequence (P56817 46-501)": "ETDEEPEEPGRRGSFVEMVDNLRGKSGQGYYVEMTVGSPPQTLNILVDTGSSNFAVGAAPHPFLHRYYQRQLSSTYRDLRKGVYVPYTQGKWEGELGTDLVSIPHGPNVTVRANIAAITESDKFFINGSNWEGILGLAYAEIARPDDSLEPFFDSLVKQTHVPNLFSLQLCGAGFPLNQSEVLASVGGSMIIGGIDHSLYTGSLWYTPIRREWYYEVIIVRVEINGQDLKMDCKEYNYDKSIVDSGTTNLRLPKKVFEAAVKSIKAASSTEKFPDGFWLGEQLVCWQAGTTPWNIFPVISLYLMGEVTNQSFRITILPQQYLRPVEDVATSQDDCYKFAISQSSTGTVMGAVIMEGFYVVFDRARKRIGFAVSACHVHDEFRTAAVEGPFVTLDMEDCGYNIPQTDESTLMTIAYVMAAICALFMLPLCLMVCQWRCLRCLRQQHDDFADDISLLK", "assay": "NRG1-BACE cleavage in transfected HEK 293 cells (SEAP/lacZ)", "format": "cell-based", "experimental": "(§1) Briefly, in order to determine the PSGL-1-BACE1 IC50 IC50 HEK 293 cells were plated in 24 well plates and transiently cotransfected with either PSGL1/lacZ or NRG1/lacZ constructs using Lipofectamine 2000; manufacturer protocol was followed. Two hours after adding the DNA-lipid complex to the cells a BACE inhibitor was added to each well, then cells were incubated overnight at 37° C. and 5% CO2. Cultured medium was collected to determine NRG1 or PSGL1, and cells were lysed to measure lacZ levels. Sigma SEAP kit standard protocol was conducted on the cultured medium to detect levels of PSGL1 or NRG1. Promega kit instructions were followed to determine lacZ concentration. The ratio of PSGL1/lacz vs [BACE inhibitor] or were plotted to determine the BACE1-IC50 on each of the substrate using GraphPad Prism 5 (FIG. 6B)."}, "PSGL-1-BACE1": {"molecular_target": "PSGL-1-BACE1 (Homo sapiens (Human), UniProt P56817)", "sequence (P56817 46-501)": "as above", "assay": "PSGL1-BACE cleavage in transfected HEK 293 cells (SEAP/lacZ)", "format": "cell-based", "settings": "APP-BACE vs PSGL1-BACE cleavage", "experimental": "as §1"}}, "note": "Read-outs that look alike come from different tables or passages of the source.", "data": [{"smiles": "Cc1cc(C2(c3cc(F)cc(F)c3)N=C(N)N(C)C2=O)ccc1OC(F)F", "note": "(stereo not drawn) [FAH-3, 2-amino-4-(4-(difluoromethoxy)-3-methylphenyl)-4-(3,5-difluorophenyl)-1-methyl-1H-imidazol-5(4H)-one]", "values": [{"measurement": "Kd", "setting": "TRX-eAPP575-624; Table 1, SPR, read-out: APP binding Kd", "result": 0.3, "unit": "µM"}, {"measurement": "sAPP alpha", "setting": "sAPP alpha", "result": "↑ > 10%"}, {"measurement": "sAPP (α/β)", "setting": "sAPP alpha", "result": "↑≈10%"}, {"measurement": "sAPP beta", "setting": "sAPP beta", "result": "↓ < 20%"}, {"measurement": "IC50", "setting": "Aβ1-42", "result": "> 1", "unit": "µM"}, {"measurement": "Inhibition of Aβ / Aβ42 production", "setting": "Aβ1-42; SH-SY5Y cells", "result": "inhibition of Aβ production"}, {"measurement": "Aβ lowering in vivo", "setting": "Aβ42", "result": "lowered Aβ"}]}, {"smiles": "Cc1cc(C2(c3cccc(F)c3)N=C(N)N(C)C2=O)ccc1OC(F)F", "note": "(stereo not drawn) [FAH-17, 2-amino-4-(4-(difluoromethoxy)-3-methylphenyl)-4-(3-fluorophenyl)-1-methyl-1H-imidazol-5(4H)-one]", "values": [{"measurement": "sAPP alpha", "setting": "sAPP alpha", "result": "↑ > 20%"}, {"measurement": "sAPP (α/β)", "setting": "sAPP alpha", "result": "↑ > 100%"}, {"measurement": "sAPP beta", "setting": "sAPP beta", "result": "↓ < 50%"}, {"measurement": "IC50", "setting": "Aβ1-42", "result": "> 1", "unit": "µM"}, {"measurement": "Selectivity for APP over NRG1", "setting": "NRG1-BACE1; APP-BACE vs NRG1-BACE cleavage", "result": "> 10", "unit": "fold"}, {"measurement": "IC50", "setting": "NRG1-BACE1; secondary screen, read-out: NRG1-BACD1 IC50", "result": "> 1", "unit": "µM"}, {"measurement": "Selectivity for APP over PSGL1", "setting": "PSGL-1-BACE1", "result": "> 200", "unit": "fold"}]}, {"smiles": "Cc1cc(C2(c3cccc(Cl)c3)N=C(N)N(C)C2=O)ccc1OC(F)F", "note": "(stereo not drawn) [FAH-23, 2-amino-4-(3-chlorophenyl)-4-(4-(difluoromethoxy)-3-methylphenyl)-1-methyl-1H-imidazol-5(4H)-one]", "values": [{"measurement": "sAPP alpha", "setting": "sAPP alpha", "result": "↑ > 20%"}, {"measurement": "sAPP (α/β)", "setting": "sAPP alpha", "result": "↑ > 50%"}, {"measurement": "sAPP beta", "setting": "sAPP beta", "result": "↓ < 20%"}]}, {"smiles": "Cc1cc(F)cc(C2(c3ccc(OC(F)F)c(C)c3)N=C(N)N(C)C2=O)c1", "note": "(stereo not drawn) [FAH-22, 2-amino-4-(4-(difluoromethoxy)-3-methylphenyl)-4-(3-fluoro-5-methylphenyl)-1-methyl-1H-imidazol-5(4H)-one]", "values": [{"measurement": "sAPP alpha", "setting": "sAPP alpha", "result": "↑ > 10%"}, {"measurement": "sAPP (α/β)", "setting": "sAPP alpha", "result": "↑≈50%"}, {"measurement": "sAPP beta", "setting": "sAPP beta", "result": "↓ < 20%"}]}, {"smiles": "CN1C(=O)C(c2ccccc2)(c2cc(F)cc(F)c2)N=C1N", "note": "(stereo not drawn) [FAH-1]", "values": [{"measurement": "Kd", "setting": "TRX-eAPP575-624", "result": 5, "unit": "µM"}]}, {"smiles": "Cc1cc(C2(c3cccc(C(F)(F)F)c3)N=C(N)N(C)C2=O)ccc1OC(F)F", "note": "(stereo not drawn) [FAH-28]", "values": [{"measurement": "sAPP alpha", "setting": "sAPP alpha", "result": "↑ > 20%"}, {"measurement": "sAPP (α/β)", "setting": "sAPP alpha", "result": "↑ > 50%"}, {"measurement": "sAPP beta", "setting": "sAPP beta", "result": "↓ < 20%"}]}, {"smiles": "Cc1cccc(C2(c3ccc(OC(F)F)c(C)c3)N=C(N)N(C)C2=O)c1", "note": "(stereo not drawn) [FAH-27, 2-amino-4-(4-(difluoromethoxy)-3-methylphenyl)-1-methyl-4-(m-tolyl)-1H-imidazol-5(4H)-one]", "values": [{"measurement": "sAPP alpha", "setting": "sAPP alpha", "result": "↑ > 30%"}, {"measurement": "sAPP (α/β)", "setting": "sAPP alpha", "result": "↑ > 100%"}, {"measurement": "sAPP beta", "setting": "sAPP beta", "result": "↓ < 30%"}]}]}
